Read-outs that look alike come from different tables or passages of the source.
Assays:
[1] = molecular target: GDP-bound KRAS wild-type protein (Homo sapiens, UniProt P01116); assay: Binding to KRAS by surface plasmon resonance (SPR), Single Cycle Kinetics; conditions: GDP-bound KRAS wild-type protein, read-out: KRAS KD
[2] = molecular target: GDP-bound NRAS wild-type protein (Homo sapiens, UniProt P01111); assay: Binding to NRAS by surface plasmon resonance (SPR), Single Cycle Kinetics; conditions: for NRAS/KRAS (ratio of KD value for NRAS to KD value for KRAS): SPR, GDP-bound NRAS wild-type protein vs GDP-bound KRAS wild-type protein; for NRAS/KRAS (ratio of KD value with respect to GDP-bound NRAS wild-type protein to KD value with respect to KRAS): SPR KD ratio NRAS/KRAS, class symbols
[3] = tested on: human lung cancer strain NCI-H441;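 also: cell proliferation inhibition after four days measured by CellTiter-Glo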
[4] = molecular target: GDP-bound HRAS wild-type protein (Homo sapiens, UniProt P01112); assay: Binding to HRAS by surface plasmon resonance (SPR), Single Cycle Kinetics; conditions: for HRAS/KRAS (ratio of KD value for HRAS to KD value for KRAS): SPR, GDP-bound HRAS wild-type protein vs GDP-bound KRAS wild-type protein; for HRAS/KRAS (ratio of KD value with respect to GDP-bound HRAS wild-type protein to KD value with respect to KRAS): SPR KD ratio HRAS/KRAS, class symbols
[5] = SPR, Single Cycle Kinetics, 1:1 binding model
[6] = SPR Single Cycle Kinetics, 1:1 binding model

GDP-bound HRAS wild-type protein, sequence (P01112 whole entry): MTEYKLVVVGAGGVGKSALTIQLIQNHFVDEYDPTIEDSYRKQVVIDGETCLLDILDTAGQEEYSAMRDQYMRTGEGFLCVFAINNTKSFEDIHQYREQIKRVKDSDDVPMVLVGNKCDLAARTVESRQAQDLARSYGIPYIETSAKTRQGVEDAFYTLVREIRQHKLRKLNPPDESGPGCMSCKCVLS
GDP-bound KRAS wild-type protein, sequence (P01116 whole entry): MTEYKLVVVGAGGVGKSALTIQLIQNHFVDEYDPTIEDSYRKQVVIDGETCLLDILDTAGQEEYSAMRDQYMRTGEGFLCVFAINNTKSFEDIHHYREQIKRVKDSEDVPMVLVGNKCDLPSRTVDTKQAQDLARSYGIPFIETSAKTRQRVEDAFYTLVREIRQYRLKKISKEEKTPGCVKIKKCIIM
GDP-bound NRAS wild-type protein, sequence (P01111 whole entry): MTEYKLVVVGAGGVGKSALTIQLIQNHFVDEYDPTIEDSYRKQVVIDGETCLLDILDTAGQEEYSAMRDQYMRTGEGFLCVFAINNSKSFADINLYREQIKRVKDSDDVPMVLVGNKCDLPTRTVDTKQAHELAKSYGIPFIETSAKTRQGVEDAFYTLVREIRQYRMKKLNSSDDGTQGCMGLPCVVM

SMILES	Kd ([1]; SPR, Single Cycle Kinetics) [nM]	IC50 [3] [nM]	Kd [1, 5] [nM]	Kd [1, 6] [nM]	NRAS/KRAS (ratio of KD value for NRAS to KD value for KRAS) [2]	HRAS/KRAS (ratio of KD value for HRAS to KD value for KRAS) [4]	NRAS/KRAS (ratio of KD value for NRAS to KD value for KRAS) ([2]; KD ratio class)	HRAS/KRAS (ratio of KD value for HRAS to KD value for KRAS) ([4]; KD ratio class)	NRAS/KRAS (ratio of KD value with respect to GDP-bound NRAS wild-type protein to KD value with respect to KRAS) [2]	HRAS/KRAS (ratio of KD value with respect to GDP-bound HRAS wild-type protein to KD value with respect to KRAS) [4]
CCOC[C@H]1C(=O)N[C@@H]([C@@H](C)CC)C(=O)N(C)CC(=O)N(C)[C@H]2C/C=C\CCN(C2=O)[C@@H](Cc2ccc(C)cc2)C(=O)N(C)CC(=O)N[C@@H](CCc2ccc(C(F)(F)F)c(OC)c2)C(=O)N2C[C@H](OCC)C[C@H]2C(=O)NC2(CC(C)(C)C2)C(=O)N(C)[C@@H](C2CCCC2)C(=O)N(C)[C@H](C(=O)N(C)CC)CC(=O)N1C [PP2445]	0.14	11.7	–	–	A (a compound having 10 or more and less than 20 is denoted as A)	B (a compound having 3 or more and less than 10 is denoted as B)	–	–	–	–
CCC[C@H]1C(=O)N[C@@H]([C@@H](C)CC)C(=O)N(C)CC(=O)N(C)[C@H]2C/C=C\CCN(C2=O)[C@@H](Cc2ccc(C)cc2)C(=O)N(C)CC(=O)N[C@@H](CCc2ccc(C(F)(F)F)c(OC)c2)C(=O)N2C[C@H](OCC)C[C@H]2C(=O)NC2(CC(C)(C)C2)C(=O)N(C)[C@@H](CC2CCC2)C(=O)N(C)[C@H](C(=O)N(C)C)CC(=O)N1C [PP2753]	–	52	–	0.97	–	–	–	–	A (a compound having 10 or more and less than 20 is denoted as A)	B (a compound having 3 or more and less than 10 is denoted as B)
CC[C@H](C)[C@@H]1NC(=O)[C@H](COC)N(C)C(=O)C[C@@H](C(=O)N(C)C)N(C)C(=O)[C@H](C2CCCCC2)N(C)C(=O)C2(CC(C)(C)C2)NC(=O)[C@@H]2C[C@@H](OC(C)C)CN2C(=O)[C@H](CCc2ccc(Cl)c(Cl)c2)NC(=O)CN(C)C(=O)[C@H](Cc2ccc(C(F)(F)F)cc2)N2CC/C=C\C[C@@H](C2=O)N(C)C(=O)CN(C)C1=O [PP2662]	–	13.1	–	0.29	–	–	–	–	AA (a compound having 20 or more is denoted as AA)	A (a compound having 10 or more and less than 20 is denoted as A)
CCO[C@@H]1C[C@H]2C(=O)NC3(CCC3)C(=O)N(C)[C@@H](C3CCCC3)C(=O)N(C)[C@H](C(=O)N3CCOCC3)CC(=O)N(C)[C@@H](Cc3ccsc3)C(=O)N[C@@H]([C@@H](C)CC)C(=O)N(C)CC(=O)N(C)[C@H]3CCCCCN(C3=O)[C@@H](Cc3ccc(F)cc3)C(=O)N(C)CC(=O)N[C@@H](CCc3cc(F)c(C(F)(F)F)c(F)c3)C(=O)N2C1 [PP1184]	0.16	91.9	–	–	B (a compound having 3 or more and less than 10 is denoted as B)	B (a compound having 3 or more and less than 10 is denoted as B)	–	–	–	–
CCC[C@H]1C(=O)N[C@@H](CC(C)C)C(=O)N(CC)CC(=O)N(C)[C@H]2C/C=C\CCN(C2=O)[C@@H](Cc2ccc(C)cc2)C(=O)N(C)CC(=O)N[C@@H](CCc2ccc(C(F)(F)F)c(Cl)c2)C(=O)N2C[C@H](OCC)C[C@H]2C(=O)NC2(CC(C)(C)C2)C(=O)N(C)[C@@H](C2CCCC2)C(=O)N(C)[C@H](C(=O)N(C)C)CC(=O)N1C [PP2528]	–	207	–	4.6	–	–	–	–	A (a compound having 10 or more and less than 20 is denoted as A)	B (a compound having 3 or more and less than 10 is denoted as B)
CCC(CC)[C@H]1C(=O)N(C)[C@H](C(=O)N2CCCCC2)CC(=O)N(C)[C@@H](COC)C(=O)N[C@@H]([C@@H](C)CC)C(=O)N(C)CC(=O)N(C)[C@H]2C/C=C\CCN(C2=O)[C@@H](Cc2ccc(C(F)(F)F)cc2)C(=O)N(C)CC(=O)N[C@@H](CCc2ccc(Cl)c(Cl)c2)C(=O)N2C[C@H](OC(C)C)C[C@H]2C(=O)NC2(CC(C)(C)C2)C(=O)N1C [PP2612]	–	199	–	2.4	–	–	–	–	AA (a compound having 20 or more is denoted as AA)	A (a compound having 10 or more and less than 20 is denoted as A)
CCOC[C@H]1C(=O)N[C@@H]([C@@H](C)CC)C(=O)N(C)CC(=O)N(C)[C@H]2C/C=C\CCN(C2=O)[C@@H](Cc2ccc(C(F)(F)F)cc2)C(=O)N(C)CC(=O)N[C@@H](CCc2cc(F)c(C(F)(F)F)c(F)c2)C(=O)N2C[C@H](OCC)C[C@H]2C(=O)NC2(CC(C)(C)C2)C(=O)N(C)[C@@H](CC(C)(C)C)C(=O)N(C)[C@H](C(=O)N(C)C)CC(=O)N1C [PP2732]	–	5.3	–	0.067	–	–	–	–	A (a compound having 10 or more and less than 20 is denoted as A)	A (a compound having 10 or more and less than 20 is denoted as A)

Further lines, with some results ahead:

Kd ([1]; SPR, Single Cycle Kinetics) [nM]	IC50 [3] [nM]	Kd [1, 5] [nM]	Kd [1, 6] [nM]	SMILES	NRAS/KRAS (ratio of KD value for NRAS to KD value for KRAS) [2]	HRAS/KRAS (ratio of KD value for HRAS to KD value for KRAS) [4]	NRAS/KRAS (ratio of KD value for NRAS to KD value for KRAS) ([2]; KD ratio class)	HRAS/KRAS (ratio of KD value for HRAS to KD value for KRAS) ([4]; KD ratio class)	NRAS/KRAS (ratio of KD value with respect to GDP-bound NRAS wild-type protein to KD value with respect to KRAS) [2]	HRAS/KRAS (ratio of KD value with respect to GDP-bound HRAS wild-type protein to KD value with respect to KRAS) [4]
0.72	51.8	–	–	CCO[C@@H]1C[C@H]2C(=O)NC3(CCC3)C(=O)N(C)[C@@H](C3CCCC3)C(=O)N(C)[C@H](C(=O)N(C)C)CC(=O)N(C)[C@@H](Cc3ccccc3F)C(=O)N[C@@H]([C@@H](C)CC)C(=O)N(C)CC(=O)N(C)[C@H]3CCCCCN(C3=O)[C@@H](Cc3ccc(C(F)(F)F)cc3)C(=O)N(C)CC(=O)N[C@@H](CCc3cc(F)c(C(F)(F)F)c(F)c3)C(=O)N2C1 [PP0934]	B (a compound having 3 or more and less than 10 is denoted as B)	B (a compound having 3 or more and less than 10 is denoted as B)	–	–	–	–
–	2.9	0.061	–	CC[C@H](C)[C@@H]1NC(=O)[C@H](CC2CC2)N(C)C(=O)C[C@@H](C(=O)N(C)C)N(C)C(=O)[C@H](C2CCCC2)N(C)C(=O)C2(CCCC2)NC(=O)[C@@H]2CCCN2C(=O)[C@H](CCc2cc(F)c(C(F)(F)F)c(F)c2)NC(=O)CN(C)C(=O)[C@H](Cc2ccc(C(F)(F)F)cc2)N2C[C@H](C)[C@H](C)C[C@@H](C2=O)N(C)C(=O)CN(C)C1=O [PP1368]	–	–	A (a compound having 10 or more and less than 20 is denoted as A)	B (a compound having 3 or more and less than 10 is denoted as B)	–	–
–	38.8	0.87	–	CCO[C@@H]1C[C@H]2C(=O)NC3(CCC3)C(=O)N(C)[C@@H](C(CC)CC)C(=O)N(C)[C@H](C(=O)N(C)C)CC(=O)N(C)[C@@H](CC3CC3)C(=O)N[C@@H]([C@@H](C)CC)C(=O)N(C)CC(=O)N(C)[C@H]3C/C=C\CCN(C3=O)[C@@H](CC3CCCCC3)C(=O)N(C)CC(=O)N[C@@H](CCc3cc(F)c(C(F)(F)F)c(F)c3)C(=O)N2C1 [PP1428]	–	–	AA (a compound having 20 or more is denoted as AA)	A (a compound having 10 or more and less than 20 is denoted as A)	–	–
–	28.3	0.2	–	CCO[C@@H]1C[C@H]2C(=O)NC3(CCC3)C(=O)N(C)[C@@H](C3CCCC3)C(=O)N(C)[C@H](C(=O)N(C)C)CC(=O)N(C)[C@@H](CC3CCCC3)C(=O)N[C@@H]([C@@H](C)CC)C(=O)N(C)CC(=O)N(C)[C@H]3C/C=C\CCN(C3=O)[C@@H](Cc3ccc(C(F)(F)F)cc3)C(=O)N(C)CC(=O)N[C@@H](CCc3ccc(Cl)c(Cl)c3)C(=O)N2C1 [PP1254]	–	–	AA (a compound having 20 or more is denoted as AA)	A (a compound having 10 or more and less than 20 is denoted as A)	–	–

— patent US20240158446A1, “CYCLIC COMPOUND HAVING SELECTIVE INHIBITORY ACTION ON KRAS OVER HRAS AND NRAS” (CHUGAI SEIYAKU KABUSHIKI KAISHA, priority 2021, published 2024)
